Measurements from patent publication US8846710B2, “Method of preferentially inducing the biosynthesis of interferon” (3M Innovative Properties Company, priority 2005, dated 2014).

Tests used:
[1] = system: interferon (α) (IFN-α); assay: Cytokine induction in human cells: IFN-α secreted by PBMC into culture media (ELISA); format: cell-based; settings: for Maximal Response (pg/mL) IFN: maximal response in dose response curve, median
Source text: (§1) Cytokine Induction in Human Cells
(§2) An in vitro human blood cell system is used to assess cytokine induction. Activity is based on the measurement of interferon (α) and tumor necrosis factor (α) (IFN-α and TNF-α, respectively) secreted into culture media as described by Testerman et. al. in “Cytokine Induction by the Immunomodulators Imiquimod and S-27609”, Journal of Leukocyte Biology, 58, 365-372 (September, 1995).
(§3) Blood Cell Preparation for Culture
(§4) Whole blood from healthy human donors is collected by venipuncture into vacutainer tubes or syringes containing EDTA. Peripheral blood mononuclear cells (PBMC) are separated from whole blood by density gradient centrifugation using HISTOPAQUE-1077 (Sigma, St. Louis, Mo.) or Ficoll-Paque Plus (Amersham Biosciences Piscataway, N.J.). Blood is diluted 1:1 with Dulbecco's Phosphate Buffered Saline (DPBS) or Hank's Balanced Salts Solution (HBSS). Alternately, whole blood is placed in Accuspin (Sigma) or LeucoSep (Oreiner Bio-One, Inc., Longwood, Fla.) centrifuge frit tubes containing density gradient medium. The PBMC layer is collected and washed twice with DPBS or HBSS and re-suspended at 4×10^6 cells/mL in RPMI complete. The PBMC suspension is added to 96 well flat bottom sterile tissue culture plates containing an equal volume of RPMI complete media containing test compound.
(§5) The compounds are solubilized in dimethyl sulfoxide (DMSO). The DMSO concentration should not exceed a final concentration of 1% for addition to the culture wells. The compounds are generally tested at concentrations ranging from 30-0.014 μM. Controls include cell samples with media only, cell samples with DMSO only (no compound), and cell samples with reference compound.
(§6) The solution of test compound is added at 60 μM to the first well containing RPMI complete and serial 3 fold dilutions are made in the wells. The PBMC suspension is then added to the wells in an equal volume, bringing the test compound concentrations to the desired range (usually 30-0.014 μM). The final concentration of PBMC suspension is 2×10^6 cells/mL. The plates are covered with sterile plastic lids, mixed gently and then incubated for 18 to 24 hours at 37° C. in a 5% carbon dioxide atmosphere.
(§7) Following incubation the plates are centrifuged for 10 minutes at 1000 rpm (approximately 200×g) at 4° C. The cell-free culture supernatant is removed and transferred to sterile polypropylene tubes. Samples are maintained at −30 to −70° C. until analysis. The samples are analyzed for IFN-α by ELISA and for TNF-α by IGEN/BioVeris Assay.
(§8) Interferon (α) and Tumor Necrosis Factor (α) Analysis
IFN-α concentration is determined with a human multi-subtype calorimetric sandwich ELISA (Catalog Number 41105) from PBL Biomedical Laboratories, Piscataway, N.J. Results are expressed in pg/mL.
(§9) In total, the data output of the assay consists of concentration values of TNF-α and IFN-α (y-axis) as a function of compound concentration (x-axis).
Analysis of the data has two steps. First, the greater of the mean DMSO (DMSO control wells) or the experimental background (usually 20 pg/mL for IFN-α and 40 pg/mL for TNF-α) is subtracted from each reading. If any negative values result from background subtraction, the reading is reported as “*”, and is noted as not reliably detectable. In subsequent calculations and statistics, “*”, is treated as a zero. Second, all background subtracted values are multiplied by a single adjustment ratio to decrease experiment to experiment variability. The adjustment ratio is the area of the reference compound in the new experiment divided by the expected area of the reference compound based on the past 61 experiments (unadjusted readings). […] The reference compound used is 2-[4-amino-2-ethoxymethyl-6,7,8,9-tetrahydro-α,α-dimethyl-1H-imidazo[4,5-c]quinolin-1-yl]ethanol hydrate (U.S. Pat. No. 5,352,784; Example 91) and the expected area is the sum of the median dose values from the past 61 experiments. […]

[2] = system: tumor necrosis factor (α) (TNF-α); assay: Cytokine induction in human cells: TNF-α secreted by PBMC into culture media (ORIGEN M-Series immunoassay); format: cell-based; parameters: key to Maximal Response (pg/mL) TNF / Maximal Response TNF: If any negative values result from background subtraction, the reading is reported as “*”, and is noted as not reliably detectable; settings: for Maximal Response TNF / Maximal Response (pg/mL) TNF: median; for Maximal Response (pg/mL) TNF: maximal response in dose response curve
Source text: as §1, §2, §3, §4, §5, §6, §7, §8
The TNF-α concentration is determined by ORIGEN M-Series Immunoassay and read on an IGEN M-8 analyzer from BioVeris Corporation, formerly known as IGEN International, Gaithersburg, Md. The immunoassay uses a human TNF-α capture and detection antibody pair (Catalog Numbers AHC3419 and AHC3712) from Biosource International, Camarillo, Calif. Results are expressed in pg/mL.
as §9
Analysis of the data has two steps. First, the greater of the mean DMSO (DMSO control wells) or the experimental background (usually 20 pg/mL for IFN-α and 40 pg/mL for TNF-α) is subtracted from each reading. If any negative values result from background subtraction, the reading is reported as “*”, and is noted as not reliably detectable. In subsequent calculations and statistics, “*”, is treated as a zero. Second, all background subtracted values are multiplied by a single adjustment ratio to decrease experiment to experiment variability. The adjustment ratio is the area of the reference compound in the new experiment divided by the expected area of the reference compound based on the past 61 experiments (unadjusted readings). […]

[3] = Table 11, human PBMC, median where tested in more than one experiment
[4] = Table 11, human PBMC, * = TNF below experimental background of 40 pg/mL
[5] = Table 7, background-subtracted, reference-adjusted
[6] = Table 8, background-subtracted, reference-adjusted
[7] = Table 12, human PBMC, median where tested in more than one experiment
[8] = Table 12, human PBMC, * = below the experimental background of 40 pg/mL
[9] = Table 9, background-subtracted, reference-adjusted
[10] = Table 10, * = below experimental background level
[11] = Table 9, * = below experimental background level of 40 pg/mL

## Cc1nc2c(N)nc3ccccc3c2n1CCCNS(C)(=O)=O [Aanalog 58]
[1]; [3]
  Maximal Response IFN: 2778 pg/mL
  Minimum Effective Concentration IFN: 1.11 µM
[2]; [3]
  Minimum Effective Concentration TNF: 30 µM
[2]; [4]
  Maximal Response TNF: *

## Cc1nc2c(N)nc3ccccc3c2n1CC(C)(C)NS(C)(=O)=O [Analog 1, N-[2-(4-Amino-2-methyl-1H-imidazo[4,5-c]quinolin-1-yl)-1,1-dimethylethyl]methanesulfonamide]
[1]; [5]
  Maximal Response (pg/mL) IFN: 1846 pg/mL
[2]; [5]
  Maximal Response (pg/mL) TNF: 1518 pg/mL

## CCc1nc2c(N)nc3ccccc3c2n1CC(C)(C)NS(C)(=O)=O [Analog 2, N-[2-(4-Amino-2-ethyl-1H-imidazo[4,5-c]quinolin-1-yl)-1,1-dimethylethyl]methanesulfonamide]
[1]; [5]
  Maximal Response (pg/mL) IFN: 831 pg/mL
[1]; [3]
  Maximal Response IFN: 1096 pg/mL
[2]; [5]
  Maximal Response (pg/mL) TNF: 3670 pg/mL
[2]; [4]
  Maximal Response TNF: 9675 pg/mL

## CCCc1nc2c(N)nc3ccccc3c2n1CC(C)(C)NS(C)(=O)=O [Analog 3, N-[2-(4-Amino-2-propyl-1H-imidazo[4,5-c]quinolin-1-yl)-1,1-dimethylethyl]methanesulfonamide]
[1]; [5]
  Maximal Response (pg/mL) IFN: 832 pg/mL
[2]; [5]
  Maximal Response (pg/mL) TNF: 7245 pg/mL
[2]; [4]
  Maximal Response TNF: 9780 pg/mL

## CCOCc1nc2c(N)nc3ccccc3c2n1CC(C)(C)NS(C)(=O)=O [Analog 4, N-[2-(4-Amino-2-ethoxymethyl-1H-imidazo[4,5-c]quinolin-1-yl)-1,1-dimethylethyl]methanesulfonamide]
[1]; [5]
  Maximal Response (pg/mL) IFN: 889 pg/mL
[1]; [3]
  Maximal Response IFN: 1138 pg/mL
[2]; [5]
  Maximal Response (pg/mL) TNF: 10125 pg/mL
[2]; [4]
  Maximal Response TNF: 10665 pg/mL

## COCCc1nc2c(N)nc3ccccc3c2n1CC(C)(C)NS(C)(=O)=O [Analog 5, N-{2-[4-Amino-2-(2-methoxyethyl)-1H-imidazo[4,5-c]quinolin-1-yl]-1,1-dimethylethyl}methanesulfonamide]
[1]; [5]
  Maximal Response (pg/mL) IFN: 825 pg/mL
[1]; [3]
  Maximal Response IFN: 1308 pg/mL
[2]; [5]
  Maximal Response (pg/mL) TNF: 12518 pg/mL
[2]; [4]
  Maximal Response TNF: 13908 pg/mL

## CCOCc1nc2c(N)nc3cccnc3c2n1CC(C)(C)O [Analog 6, 1-(4-amino-2-ethoxymethyl-1H-imidazo[4,5-c][1,5]naphthyridin-1-yl)-2-methylpropan-2-ol]
[1]; [6]
  Maximal Response (pg/mL) IFN: 658 pg/mL
[1]; [7]
  Maximal Response IFN: 1674 pg/mL
[2]; [6]
  Maximal Response (pg/mL) TNF: 4921 pg/mL
[2]; [8]
  Maximal Response TNF: 7275 pg/mL

## COCCc1nc2c(N)nc3cccnc3c2n1CC(C)(C)O [Analog 7, 1-[4-amino-2-(2-methoxyethyl)-1H-imidazo[4,5-c][1,5]naphthyridin-1-yl]-2-methylpropan-2-ol]
[1]; [6]
  Maximal Response (pg/mL) IFN: 4143 pg/mL
[1]; [7]
  Maximal Response IFN: 3142 pg/mL
[2]; [6]
  Maximal Response (pg/mL) TNF: 7762 pg/mL
[2]; [8]
  Maximal Response TNF: 7503 pg/mL

## CCc1nc2c(N)nc3cc(-c4cccnc4)ccc3c2n1CC(C)(C)O [Analog 8, 1-(4-amino-2-ethyl-7-pyridin-3-yl-1H-imidazo[4,5-c]quinolin-1-yl)-2-methylpropan-2-ol]
[1]; [9]
  Maximal Response (pg/mL) IFN: 1118 pg/mL
[1]; [10]
  Maximal Response (pg/mL) IFN: 1652 pg/mL
[2]; [11]
  Maximal Response (pg/mL) TNF: 3234 pg/mL
[2]; [10]
  Maximal Response (pg/mL) TNF: 3571 pg/mL

## CCCc1nc2c(N)nc3cc(-c4cccnc4)ccc3c2n1CC(C)(C)O [Analog 9, 1-(4-amino-2-propyl-7-pyridin-3-yl-1H-imidazo[4,5-c]quinolin-1-yl)-2-methylpropan-2-ol]
[1]; [9]
  Maximal Response (pg/mL) IFN: 597 pg/mL
[1]; [10]
  Maximal Response (pg/mL) IFN: 597 pg/mL
[2]; [11]
  Maximal Response (pg/mL) TNF: 3951 pg/mL
[2]; [10]
  Maximal Response (pg/mL) TNF: 3951 pg/mL

## CCOCc1nc2c(N)nc3cc(-c4cccnc4)ccc3c2n1CC(C)(C)O [Analog 10, 1-(4-amino-2-ethoxymethyl-7-pyridin-3-yl-1H-imidazo[4,5-c]quinolin-1-yl)-2-methylpropan-2-ol]
[1]; [9]
  Maximal Response (pg/mL) IFN: 840 pg/mL
[1]; [10]
  Maximal Response (pg/mL) IFN: 840 pg/mL
[2]; [10]
  Maximal Response (pg/mL) TNF: 7867 pg/mL

## Nc1nc2ccccc2c2c1nc(CCO)n2CCCNC(=O)c1cc2ccccc2cn1 [Example 2, N-{3-[4-Amino-2-(2-hydroxyethyl)-1H-imidazo[4,5-c]quinolin-1-yl]propyl}isoquinoline-3-carboxamide]
[1]; [3]
  Maximal Response IFN: 507 pg/mL

## CC(C)(N)Cn1c(CO)nc2c(N)nc3ccccc3c21 [Example 4, 1-(2-Amino-2-methylpropyl)-2-hydroxymethyl-1H-imidazo[4,5-c]quinolin-4-amine]
[1]; [3]
  Maximal Response IFN: 1893 pg/mL

## CC(C)(O)Cn1c(CO)nc2c(N)nc3cc(-c4cncc(CO)c4)ccc3c21 [Example 189]
[1]; [10]
  Maximal Response (pg/mL) IFN: 4357 pg/mL

## CC(C)C(=O)N1CCC(Cn2c(CO)nc3c(N)nc4cc(-c5cccnc5)ccc4c32)CC1 [Example 191]
[1]; [10]
  Maximal Response (pg/mL) IFN: 969 pg/mL

## Nc1nc2cc(-c3cncc(CO)c3)ccc2c2c1nc(CO)n2CC1CCCCC1 [Example 205]
[1]; [10]
  Maximal Response (pg/mL) IFN: 1087 pg/mL

## Nc1nc2cc(-c3cccc(C(=O)N4CCOCC4)c3)ccc2c2c1nc(CO)n2CC1CCCCC1 [Example 206]
[1]; [10]
  Maximal Response (pg/mL) IFN: 1266 pg/mL

## CC(C)NC(=O)NCCn1c(CO)nc2c(N)nc3ccccc3c21 [Example 365, N-{2-[4-amino-2-(hydroxymethyl)-1H-imidazo[4,5-c]quinolin-1-yl]ethyl}-N′-isopropylurea]
[1]; [3]
  Maximal Response IFN: 1488 pg/mL
